Experimental data published in patent US20170209544A1, “A PEPTIDE THERAPY TO COUNTERACT INSULIN RESISTANCE AND TYPE 2 DIABETES” (The Regents of the University of California, priority 2014, published 2017).
Where no end group is shown, it is not given here.

Key:
3T3-L1 adipocytes = experiment: Insulin-stimulated glucose uptake in adipocytes; type: cell-based; details: 3T3-L1 adipocytes in culture; without any PST variant present
Text: Mutant PST peptides were synthesized and screened. The peptides were synthesized as various deletion peptides of PST. Native PST (SEQ ID NO. 2) inhibited insulin-stimulated glucose uptake and leptin production in adipocytes. The inventors tested various deletion mutant PST peptides whether one or more of them would compete and prevent native PST action in adipocytes.

peritoneal macrophages = experiment: In vitro chemotaxis assay; type: cell-based, mice
Method: In vitro chemotaxis assays were performed as previously described. Briefly, thioglycollate-activated peritoneal macrophages were isolated from 8 week-old male C57BL/6J mice and pretreated with the indicated concentrations of PST for 2 hours at 37° C. in serum-free RPMI. For migration analysis, 200,000 peritoneal macrophages were placed in each of the upper chamber of a 4-μm polycarbonate filter (24-transwell format; Corning, Tewksbury, Mass.), whereas compounds resuspended in serum-free RPMI at the indicated concentrations were placed in the lower chamber. After 3 hours of migration at 37° C., cells were fixed in 4% paraformaldehyde, stained with DAPI and counted under the microscope.

KO-NCD mice = experiment: GTT in NCD-fed Chga-KO mice (acute and chronic); type: in vivo
Method: For glucose tolerance tests (GTT), glucose (1 mg/g) was injected intraperitoneally (IP-GTT) (at time zero) or gavaged orally (O-GTT) after a 12-hours fast. Tail-vein glucose levels were measured at −30, 0, 15, 30, 60, 90, and 120 minutes. For insulin tolerance tests (ITT), insulin (0.4 mU/g) was injected intraperitoneally and blood glucose levels were measured at the indicated time points. Chronic PST (5 μg/g/day) and PSTv1 (10 μg/day) treatments were carried out for 15 days. For acute treatment, either peptides or saline were injected 30 minutes before glucose or insulin injection. Synergy Software Kaleidagraph Version 4.0 calculated the area under the curve (AUC) for each line curve.
To determine acute effects, NCD fed Chga-KO mice (KO-NCD) were fasted for 12 hrs, treated with saline, PST (5 μg/g BW), PSTv1 (10 μg/g BW) or PST+PSTv1 for 30 min (−30 min) before injecting glucose (0 min) for (FIG. 14A) IP-GTT (2-way ANOVA: Treatment (Sal vs PST), p<0.0001, Time, p<0.0001; Interaction, p<0.002; Treatment (PST vs PSTv1), p<0.0001; Time, p<0.0001; Interaction, p<0.005; n=7). The corresponding AUC is shown in (FIG. 14B). […]

Chga-KO mice = experiment: Glucose-stimulated insulin secretion during GTT in Chga-KO mice; type: in vivo
Text: As shown in FIGS. 4A-4D, to compare the effects of PSTv1 (the peptide with SEQ ID NO. 1) vs. PST on glucose-stimulated insulin secretion (GSIS), the inventors analyzed plasma insulin levels in Chga-KO mice during GTT experiments.

GRP78 = GRP78 (Homo sapiens, UniProt P11021); experiment: GRP78 ATPase enzymatic activity; type: biochemical
KO-DIO mice = experiment: Immunoblot of signaling in PST-treated KO-DIO mice; type: in vivo
Method: Tissues were homogenized in a buffer containing phosphatase and protease inhibitors. Homogenates were subjected to SDS-PAGE and immunoblotted. Primary antibodies for phosphorylated and total Akt, AMPK, FoxO1, and JNK were from Cell Signaling Technology (Beverly, Mass.). Actin and Srebp-1 antibodies were from Santa Cruz Biotechnology (CA).
Phosphorylation and activation of Akt, an important component of the insulin signaling pathway was analyzed by Western blot. […] Weight-matched saline-treated WT-DIO or KO-DIO and PST-treated KO-DIO mice were fasted for 12 hrs, injected with insulin (0.4 mU/g BW, IP) for 10 min and sacrificed for tissue collection. Tissues were homogenized, lysates were subjected to SDS-PAGE and immunoblotted for p-Akt in muscle (14A, n=4), WAT (14B, n=4) and liver (14C, n=4) and for p-AMPK in muscle (14D), WAT (14E) and liver (14F). “*” Denotes comparison between the indicated groups. “*”: P<0.05, “**”: p<0.01, “***”: p<0.001.
The insulin-stimulated phosphorylation of FoxO1, downstream of Akt (82 kDa pFoxO1 and 95 kDa pFoxO1), in KO-DIO mice was higher in WAT and the liver than corresponding insulin-treated WT-DIO tissues (FIGS. 16A and 16B). Weight-matched saline-treated WT-DIO or KO-DIO and PST-treated KO-DIO mice were fasted for 12 hrs, injected with insulin (0.4 mU/g BW, IP) for 10 min and sacrificed for tissue collection. Tissues were homogenized, lysates were subjected to SDS-PAGE and subsequently immunoblotted to detect phospho-p95-FoxO1 and phospho-p82-FoxO1 signals in WAT (16A, n=4) and phospho-p82-FoxO1 signals in liver (16B, n=4), phospho-p54-Jnk and phospho-p46-Jnk signals in WAT (16C, n=4) and liver (16D, n=4), and p125-Srebp-1 and p-68-Srebp-1 (mature) signals in liver (16E, n=4). “*” Denotes comparison between the indicated groups. “*”: P<0.05, “**”: p<0.01, “***”: p<0.001.

Chain of GRP78 (P11021 19-654, species assumed): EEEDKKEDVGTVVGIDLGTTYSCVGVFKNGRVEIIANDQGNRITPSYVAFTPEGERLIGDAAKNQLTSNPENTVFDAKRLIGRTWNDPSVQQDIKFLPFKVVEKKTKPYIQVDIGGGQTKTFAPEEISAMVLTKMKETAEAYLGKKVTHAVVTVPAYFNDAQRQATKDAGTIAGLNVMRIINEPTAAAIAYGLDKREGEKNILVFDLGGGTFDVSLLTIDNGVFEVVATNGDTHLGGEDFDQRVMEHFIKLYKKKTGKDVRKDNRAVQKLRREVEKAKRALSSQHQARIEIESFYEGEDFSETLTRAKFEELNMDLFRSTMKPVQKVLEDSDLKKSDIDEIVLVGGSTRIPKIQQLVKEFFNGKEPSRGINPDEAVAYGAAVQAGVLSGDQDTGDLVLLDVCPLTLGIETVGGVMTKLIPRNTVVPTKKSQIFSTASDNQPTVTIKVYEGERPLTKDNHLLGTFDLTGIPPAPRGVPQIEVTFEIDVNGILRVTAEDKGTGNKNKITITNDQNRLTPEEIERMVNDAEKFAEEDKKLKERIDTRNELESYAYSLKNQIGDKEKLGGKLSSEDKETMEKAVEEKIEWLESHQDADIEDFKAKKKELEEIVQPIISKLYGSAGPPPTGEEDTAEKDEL

GRP78's ATPase enzymatic activity (GRP78): inhibits
Substance: PEGKGEQEHSQQKEEEEEMAVVPQGLFRG-amide (PEGKGEQEHSQQKEEEEEMAVVPQGLFRG-NH2) [PST, Wild-type human pancreastatin, a chromogranin A derived peptide]
inhibition of insulin-stimulated glucose uptake (3T3-L1 adipocytes): 35%
chemotaxis relative to Mcp-1 (peritoneal macrophages; 10 nM PST vs 10 nM Mcp-1): 44%
chemotaxis compared to saline-treated controls (peritoneal macrophages; peritoneal macrophage cultures): significantly higher levels of chemotaxis
blood glucose after acute PST treatment (KO-NCD mice; acute, Chga-KO mice on normal chow diet): induces hyperglycemia
insulin sensitivity (GTT) (KO-NCD mice; chronic PST 5 μg/g BW for 15 days, Chga-KO mice on NCD): induced insulin resistance
glucose-stimulated insulin secretion (GSIS) (Chga-KO mice): lowers GSIS
plasma glucose concentration (Chga-KO mice): without lowering plasma glucose concentration
FoxO1 signaling in WAT (KO-DIO mice; WAT): modulated
increased insulin-stimulated pFoxO1-p95 signals in WAT (KO-DIO mice; WAT): reversed
hepatic AMPK, FoxO1 or Jnk signaling (KO-DIO mice; liver): did not alter
Srebp-1c p68 to p125 ratio (KO-DIO mice; liver, compared to untreated KO-DIO): decreased
AMPK signaling (KO-DIO mice; muscle, WAT and liver): did not change the overall pattern
stimulation of Akt phosphorylation by insulin (KO-DIO mice; muscle, WAT and liver): completely inhibited
